Experimental data as given in patent US6649605B2, “Treatment of tension-type headaches with NMDA receptor antagonists” (Head Explorer A/S, priority 1996, dated 2003).
“Also recorded” adds a separate entry of the source.

What was measured:
[1] = test system: patients with chronic tension-type headache; test: Open labeled pilot study of prophylactic Dextromethorphan; format: in vivo, human
Excerpt: Five patients with a diagnosis of chronic tension-type headache according to the International Headache Society (Headache Classification Committee 1988) were recruited from the outpatient headache clinic at Glostrup Hospital. There were 2 males and 3 females, and the mean age was 45.4 years (range 39-48). The mean life time duration of chronic tension-type headache was 12.2 years (range 4-25). One patient had coexisting but infrequent migraine. Exclusion criteria were; daily major medication (including prophylactic headache therapy); abuse of analgesics or alcohol; serious somatic or psychiatric diseases including depression.
Using an open labeled design, patients fulfilled a diagnostic headache diary during at least 4 weeks run-in period to ensure the diagnostic criteria. Thereafter, the patients received Dextromethorphan (Dexofan®) tablets at 30 mg each, three times per day. The treatment period lasted 4 weeks, and during this period patients were asked to continue Faith headache diaries: and record headache intensity, frequency, duration, any medication taken and any possible adverse events. At a follow up visit at day 29-32, diaries were collected and possible adverse events and evaluation of the treatment were recorded. Due to the restricted number of patients, no statistical analysis were done. The efficacy parameters were headache intensity, frequency and duration, and intake of simple analgesics. Mean values from the run-in period were compared to those obtained during the treatment period.

[2] = test system: human volunteers; conditions: cited from earlier work
[3] = test system: tension-type headache; conditions: literature reports; cited from earlier work
[4] = test system: patients with chronic tension-type headache; test: Open labeled pilot study of prophylactic Gabapentin; format: in vivo, human
Excerpt: Three patients with a diagnosis of chronic tension-type headache according to the International Headache society (Headache Classification Committee 1988) were recruited from the outpatient headache clinic at Glostrup Hospital. The patients were males with a mean age of 42 years (range. 35-49). The mean life time duration of chronic tension-type headache was 16 years (range 7-21). […] Exclusion criteria were: daily major medication (including prophylactic headache therapy); abuse of analgesics or alcohol; serious somatic or psychiatric diseases including depression.
Using an open labeled design, patients fulfilled a diagnostic headache diary during at least 4 weeks run-in period to ensure the diagnostic criteria. Thereafter, the patients received Gabapentin (Neurontin®) tablets, initially 300 mg (one tablet) per day on day one, increasing with 300 mg (1 tablet) per day to 900 mg (3 tablets) on day 3. The treatment period lasted […], and during this period patients were asked to continue with headache diaries, and record headache intensity, frequency, duration, any medication taken and any possible adverse events. At a follow, up visit at day 29-32, diaries were collected and any adverse events and evaluation of the treatment were recorded. Duo to the low number of patients, no statistical analysis were done. The primary efficacy parameters were headache intensity frequency and duration, and the mean values from the run-in period were compared to those obtained during the treatment period, […]

[5] = target: GABA B (Homo sapiens, UniProt Q9UBS5); conditions: cited from earlier work
[6] = test system: GABA A; conditions: cited from earlier work
[7] = test system: alpha-2-subunit of a calcium channel; conditions: cited from earlier work
[8] = test system: migraine; conditions: literature reports; cited from earlier work
[9] = 0-10 VAS intensity scale, during active treatment, mean
[10] = 0-10 VAS intensity scale, run-in period, mean
[11] = open labeled, no statistical analysis

Sequence of GABA B (Q9UBS5 15-961 limits assumed): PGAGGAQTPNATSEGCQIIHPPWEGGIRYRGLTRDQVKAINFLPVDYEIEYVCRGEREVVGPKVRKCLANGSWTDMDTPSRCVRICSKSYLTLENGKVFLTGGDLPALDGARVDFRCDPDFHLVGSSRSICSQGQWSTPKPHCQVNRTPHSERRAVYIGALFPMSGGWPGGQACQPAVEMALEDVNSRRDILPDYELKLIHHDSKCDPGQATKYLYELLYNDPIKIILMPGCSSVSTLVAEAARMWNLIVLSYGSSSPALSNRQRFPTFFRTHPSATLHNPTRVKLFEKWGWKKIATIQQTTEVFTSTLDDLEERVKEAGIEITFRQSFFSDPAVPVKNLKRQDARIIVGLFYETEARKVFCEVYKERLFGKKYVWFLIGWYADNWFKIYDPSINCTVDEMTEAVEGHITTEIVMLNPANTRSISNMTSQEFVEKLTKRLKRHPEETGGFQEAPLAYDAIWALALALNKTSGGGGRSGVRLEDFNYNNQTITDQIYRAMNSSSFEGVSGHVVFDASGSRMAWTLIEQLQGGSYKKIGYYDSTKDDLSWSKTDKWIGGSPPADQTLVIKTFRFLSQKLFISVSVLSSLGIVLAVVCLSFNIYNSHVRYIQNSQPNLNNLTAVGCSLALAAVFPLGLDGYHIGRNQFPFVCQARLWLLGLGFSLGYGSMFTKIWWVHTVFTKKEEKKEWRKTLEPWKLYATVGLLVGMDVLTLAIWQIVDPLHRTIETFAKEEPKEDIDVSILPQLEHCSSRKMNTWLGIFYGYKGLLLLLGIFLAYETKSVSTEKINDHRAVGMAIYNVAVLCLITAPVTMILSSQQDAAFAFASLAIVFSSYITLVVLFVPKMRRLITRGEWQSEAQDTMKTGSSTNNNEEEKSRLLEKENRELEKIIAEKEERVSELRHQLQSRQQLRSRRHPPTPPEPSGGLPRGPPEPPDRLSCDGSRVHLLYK
Sequence of GABA B (O75899 42-941 partner): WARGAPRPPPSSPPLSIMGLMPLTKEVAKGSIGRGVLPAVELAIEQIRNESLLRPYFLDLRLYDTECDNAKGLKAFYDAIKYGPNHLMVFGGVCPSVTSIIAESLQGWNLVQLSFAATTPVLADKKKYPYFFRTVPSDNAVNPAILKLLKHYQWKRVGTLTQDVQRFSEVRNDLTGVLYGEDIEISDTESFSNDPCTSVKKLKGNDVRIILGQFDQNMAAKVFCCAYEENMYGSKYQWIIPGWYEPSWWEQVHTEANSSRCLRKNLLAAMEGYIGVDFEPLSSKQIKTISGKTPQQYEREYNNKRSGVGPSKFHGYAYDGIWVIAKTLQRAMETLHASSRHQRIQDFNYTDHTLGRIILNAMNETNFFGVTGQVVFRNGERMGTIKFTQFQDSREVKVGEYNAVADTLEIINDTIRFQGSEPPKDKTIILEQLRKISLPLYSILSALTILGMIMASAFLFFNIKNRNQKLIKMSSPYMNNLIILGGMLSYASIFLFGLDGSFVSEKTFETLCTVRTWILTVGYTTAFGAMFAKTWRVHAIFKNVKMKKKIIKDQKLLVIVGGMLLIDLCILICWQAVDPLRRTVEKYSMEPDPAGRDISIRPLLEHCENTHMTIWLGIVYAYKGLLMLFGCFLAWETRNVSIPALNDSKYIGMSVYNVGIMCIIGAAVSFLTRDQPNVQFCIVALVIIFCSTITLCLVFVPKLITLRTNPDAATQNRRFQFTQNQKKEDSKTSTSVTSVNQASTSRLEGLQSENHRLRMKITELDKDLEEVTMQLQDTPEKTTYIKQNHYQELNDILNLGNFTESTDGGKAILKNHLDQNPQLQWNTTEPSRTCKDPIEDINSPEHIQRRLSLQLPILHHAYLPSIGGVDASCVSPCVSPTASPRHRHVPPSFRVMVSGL

SMILES: COc1ccc2c(c1)[C@]13CCCC[C@@H]1[C@H](C2)N(C)CC3 [Dextromethorphan]
- Headache intensity, active treatment [1, 9]: 3.6
- Headache intensity, run-in period [1, 10]: 4.4
- Effect in the individual patients ([1]; 5 patients): Two patients reported a marked effect with considerable relief of headache intensity and duration within very few days of treatment; also recorded: one patient had a slight relief of headache intensity; also recorded: two patients reported no effect at all
- Side effects ([1]; 5 patients): Four patients reported no side effects; also recorded: marked side effects with sedation was reported in one patient
- Frequency of headache, active treatment ([1]; active treatment): 27 days per 4 weeks period
- Mean intake of analgesics, active treatment ([1]; active treatment): 0.5 dose per day
- Overall prophylactic effect [1, 11]: positive prophylactic effect
- Frequency of headache, run-in period ([1]; run-in): 28 days per 4 weeks period
- Mean intake of analgesics, run-in period ([1]; run-in period): 1.8 dose per day
- Decrease of frequency of headache ([1]; treatment vs run-in period): 4%
- Decrease of intake of analgesics ([1]; treatment vs run-in period): 72%
- Reduction of duration of the individual headache episode ([1]; treatment vs run-in period): 11%
- Reduction of headache intensity ([1]; treatment vs run-in period, 30 mg three times per day, 4 weeks, 5 patients): 18%
- After sensation induced by repetitive stimuli [2]: reduce the after sensation

SMILES: CCOC(=O)Nc1ccc(NCc2ccc(F)cc2)nc1N [Flupirtin, ethyl 2-amino-6-(4-fluorobenylamino)-3-pyridylcarbamate]
- Effect in tension-type headache [3]: positive effects

SMILES: NCC1(CC(=O)O)CCCCC1 [Gabapentin]
- Headache intensity, active treatment [4, 9]: 3.6
- Headache intensity, run-in period [4, 10]: 5.5
- Effect in the individual patients ([4]; 3 patients): One patient had excellent effect of Gabapentin with complete relief of the headache after 2 days treatment; also recorded: another patient had a moderate effect on headache intensity and frequency; also recorded: the third patient had no significant effect on any of efficacy parameters
- Side effects ([4]; 3 patients): Those two subjects with good or excellent effect reported no side effects; also recorded: sedation, vertigo and slight nausea
- Mean daily intake of analgesics, active treatment ([4]; active treatment): 0.3 dose per day
- Frequency of headache, active treatment ([4]; active treatment period): 13 days per 4 weeks
- Overall prophylactic effect [4, 11]: positive prophylactic effect
- Frequency of headache, run-in period ([4]; run-in period): 23.5 days per 4 weeks
- Mean daily intake of analgesics, run-in period ([4]; run-in period): 1.1 dose per day
- Decrease of frequency of headache ([4]; treatment vs run-in period): 45%
- Decrease of mean daily intake of analgesics ([4]; treatment vs run-in period): 72%
- Reduction of duration of the individual headache episode ([4]; treatment vs run-in period): 8%
- Decrease of headache intensity ([4]; treatment vs run-in period, up to 900 mg per day, 3 patients): 35%
- Affinity for GABA B [5]: fail to show affinity
- Affinity for GABA A [6]: fail to show affinity
- Binding affinity to the alpha-2-subunit of a calcium channel [7]: showed binding affinity

SMILES: CNS(=O)(=O)Cc1ccc2[nH]cc(CCN(C)C)c2c1 [sumatriptan]
- Effect in migraine [8]: highly effective
- Effect in tension-type headache [3]: not effective to a clinically relevant extent
